Patent US20090082304A1, “Methods of Treating Hematological Malignancies with Nucleoside Analog Drugs” (NORTHWESTERN UNIVERSITY, priority 2004, published 2009)

Key:
Assay type in all cases: cell-based
MEK1/2 = experiment: Immunoblot of phospho-MEK1/2 in MM.1 S cells; conditions: 10 μM, 0-6 hours
Protocol: (§1) 5×10^6 were cells treated with 10 μM 8-NH2-Ado for the indicated times and harvested. Cell pellets were washed with cold phosphate-buffered saline (PBS; 8.1 g NaCl, 1.14 g Na2HPO4, 0.22 g KCl, and 0.25 g/L KH2PO4) and incubated with lysis buffer (50 mM HEPES, 150 mM NaCl, 1.5 mM MgCl2, 1 mM EDTA pH 8.0, 100 mM NaFI, 10 mM Na Pyrophosphate, 500 μM PMSF, 0.5% Triton X-100, 10% glycerol) at 4° C. for one hour. Lysates were centrifuged at 4° C. for 1 minute at 9000×g, and the supernatants were collected and stored at −20° C. Protein concentration was determined by Bio-Rad protein assay (BioRad Laboratories, Hercules, Calif.). Protein, at a concentration of 30 μg, was mixed with sample buffer (125 mM Tris, pH 6.8, 4% SDS, 20% glycerol, 100 mM Dithiothreitol (DTT), and 0.05% bromophenol blue), and fractionated on a pre-cast 8-16% Tris-Glycine gel (Invitrogen/Novex, Carlsbad, Calif.). Proteins were then transferred to a Polyvinylidene Fluoride (PVDF) membrane (Immobilon-P, Millipore, Bedford, Mass.): Following protein transfer, membranes were blocked with 5% non-fat milk in PBS-T (PBS with 0.1% Tween), incubated with the primary antibody overnight at 4° C. and subsequently with horseradish peroxidase linked secondary antibody (Amersham, Arlington Heights, Ill.). […]

[1] = system: p38 in RPMI-8226, MDR10V and MM.1 R cells; experiment: Phosphorylation of p38 in additional myeloma cell lines; conditions: data not shown
Protocol: as §1, with “Calif.).” for “Calif.). Proteins were then transferred to a Polyvinylidene Fluoride (PVDF) membrane (Immobilon-P, Millipore, Bedford, Mass.): Following protein transfer, membranes were blocked with 5% non-fat milk in PBS-T (PBS with 0.1% Tween), incubated with the primary antibody overnight at 4° C. and subsequently with horseradish peroxidase linked secondary antibody (Amersham, Arlington Heights, Ill.).”
The effect of 8-NH2-Ado treatment on phosphorylation levels was assessed in additional myeloma cell lines, to determine whether the drug-induced alterations in protein phosphorylation occur in multiple cells lines or are limited to the MM.1 S myeloma cell line.

MM cells = system: MM cells
Protocol: The MTS assay was performed as described previously (Krett et al., Clin Cancer Res. 3: 1781-1787). Briefly, MM cells were cultured into 96 well dishes at a concentration of 25,000 cells per well and incubated with the 8-NH2-Ado for 72 hours. Cell proliferation was determined using the MTS Cell Titer Aqueous assay (Promega, Madison, Wis.), which measured the conversion of a tetrazolium compound into formazan by a mitochondrial dehydrogenase enzyme in live cells. The quantity of formazan product as measured by the amount of 490 nm absorbance is directly proportional to the number of living cells in culture. The data were expressed as the percentage of formazan produced by the cells treated with the control medium in the same assay.

SMILES: Nc1ncnc2c1nc(N)n2[C@@H]1O[C@H](CO)[C@@H](O)[C@H]1O [8-NH2-Ado, 8-amino-adenosine]
- phosphorylation levels of MEK1/2 (MEK1/2): appear to increase
- Phosphorylation levels of p38 [1]: decrease in a dose-dependent manner
- cytotoxicity (MM cells): cytotoxic
- effect on normal versus malignant cells (MM cells): differential effect
